In publication PMC9921161, “Antihyaluronidase and Antioxidant Potential of Atriplex sagittata Borkh. in Relation to Phenolic Compounds and Triterpene Saponins” (Molecules, 2023):

Molecular target: Hyaluronidase from bovine testes type I-S (Bos taurus, UniProt Q2YDK3)
Experiment: Antihyaluronidase activity, spectrophotometric (turbidimetric CTAB) method
Assay type: biochemical
Details: for IC50 hyaluronidase inhibition: pH 4.5, 37 °C
Experimental: Antihyaluronidase activity was determined using a spectrophotometric method described previously. Briefly, extracts after evaporation of methanol were dissolved in DMSO (at concentrations of 0.01–1 mg/mL) and were pre-incubated (10 min, 37 °C) in the presence of the hyaluronidase enzyme (25 µL Hyal, 30 U/mL) and incubation buffer (25 µL, acetate buffer, pH 4.5, […], 0.5 mg/mL albumin). The same procedure was applied to isolated compounds (at concentrations 0.005–1 mg/mL). Next, a solution of hyaluronic acid (25 µL HA, 0.3 mg/mL) was added to the reaction mixtures and the samples were incubated (45 min, 37 °C). After incubation, CTAB (200 µL of 2.5%) solution was added to the reaction mixtures. The inhibitory effect of the tested extracts and saponins on the enzyme activity was determined on the basis of the measurement of the absorbance of the precipitated nonhydrolyzed hyaluronic acid. The study was carried out using a multipurpose plate reader (Synergy HT BioTek, Winooski, VT, USA) at a wavelength of 600 nm. Antihyaluronidase activity was expressed as % enzyme inhibition, as previously described. Quercetin and escin were used as positive controls in the range of concentrations (10–1000 µg/mL corresponding to the analyzed substances (see Table 4).

[1] = read-out: Hyaluronidase Inhibition [%]

Sequence of Hyaluronidase from bovine testes type I-S (Q2YDK3 entry or part of it): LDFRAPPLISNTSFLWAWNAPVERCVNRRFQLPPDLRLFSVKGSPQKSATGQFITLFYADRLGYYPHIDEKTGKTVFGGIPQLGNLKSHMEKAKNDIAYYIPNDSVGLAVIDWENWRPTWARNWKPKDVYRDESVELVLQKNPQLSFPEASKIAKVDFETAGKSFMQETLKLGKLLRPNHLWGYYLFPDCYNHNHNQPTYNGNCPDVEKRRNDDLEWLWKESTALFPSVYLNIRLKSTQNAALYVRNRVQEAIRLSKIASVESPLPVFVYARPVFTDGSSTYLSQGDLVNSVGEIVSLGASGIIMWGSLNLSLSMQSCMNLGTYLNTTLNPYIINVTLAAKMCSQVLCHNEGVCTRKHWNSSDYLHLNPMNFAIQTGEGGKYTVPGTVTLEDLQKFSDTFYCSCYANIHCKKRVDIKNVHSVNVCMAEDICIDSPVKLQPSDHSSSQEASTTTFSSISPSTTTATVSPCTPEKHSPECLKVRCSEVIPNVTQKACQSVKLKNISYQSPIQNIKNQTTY

| Compound | IC50 hyaluronidase inhibition | inhibition at 10 µg/mL [1] | inhibition at 20 µg/mL [1] | inhibition at 50 µg/mL [1] | inhibition at 100 µg/mL [1] | inhibition at 200 µg/mL [1] | inhibition at 300 µg/mL [1] | inhibition at 500 µg/mL [1] | inhibition at 700 µg/mL [1] | inhibition at 1000 µg/mL [1] |
| --- | --- | --- | --- | --- | --- | --- | --- | --- | --- | --- |
| O=c1c(O)c(-c2ccc(O)c(O)c2)oc2cc(O)cc(O)c12 [quercetin] | 514.28 mg/L | 0.61 ± 0.53% | 0.62 ± 0.54% | 1.24 ± 0.99% | 4.39 ± 0.88% | 13.9 ± 2.7% | 21.9 ± 4.04% | 38.8 ± 1.33% | 80.56 ± 0.49% | 91.1 ± 1.5% |
| escin | 307.38 mg/L |  |  |  |  |  |  |  |  |  |
